The record followed here is patent US20260207602A1, “EGFR INHIBITORS” (Blueprint Medicines Corporation, priority 2022, published 2026).

In assay [1] the target is intracellular phosphorylation of EGFR (Tyr1068) in PC-9 cells (Homo sapiens, UniProt P00533, DEL746-750). The assay is described as follows: PC-9 pEGFR AlphaLISA assay. To be noted: 4 hours incubation, read-out: Phos EGFR PC9 IC50. The assay is classed as cell-based. Here is the method: PC-9/A431 pEGFR AlphaLISA Assays
Inhibitory effects of compounds were evaluated in cellular assays that measure level of intracellular phosphorylation of EGFR in PC-9 (ECACC, #90071810, Milipore/Sigma) and A431 cell lines (ATCC, CRL-1555) using AlphaLISA sureFire ultra p-EGFR (Tyr1068) assay kit (PerkinElmer, ALSU-PEGFR-A50K). PC-9 cells were seeded at 3.125×10^5 cells/ml in 40 μL phenol-free DMEM supplemented with 10% FBS per well of a 384 well plate (Corning, 3764), while A431 were seeded at […] in 40 μL in phenol-free DMEM with 0.5% FBS. Cells were allowed to adhere overnight at 37° C./5% CO2. On the next day, compounds were transferred at 4-fold, 10-point serial dilution from compound source plate to cell plates using liquid handler Echo550 and were incubated at 37° C./5% CO2 for 4 hours. A431 cells were stimulated prior harvesting for 10 min with EGF at final concentration of 30 ng/ml in the incubator. Medium was removed from the plates and cells were lysed with 10 μL of 1× AlphaLISA lysis buffer (supplemented with 1× protease/phosphatase inhibitor cocktail) followed by shaking at 600 rpm for 30 minutes at room temperature. Lysates were transferred to Optiplate (Apricot designs) and 5 ul of 1× acceptor bead mix (prepared just before use) was added to each well followed by incubation at room temperature for 1.5-2 h in dark. Then 5 μL of freshly-made donor bead mix is added to each well under subdued lighting or green filters, was mixed well on the shaker and the plate was sealed and left for an overnight incubation at room temperature in dark. On the next day, the plate was read the Envision using standard AlphaLisa settings. Percent of pEGFR inhibition was plotted against log concentration of compounds to generate IC50 values.
For orientation: Bead proximity is the source of the signal in Alpha formats.

The target of assay [2] is T1, EGFR L858R (Homo sapiens, UniProt P00533, L858R).
T1 construct: purchased SignalChem E10-122BG
The experiment in a line: Biochemical EGFR inhibition assay (Caliper mobility shift), EGFR L858R. Conditions: biochemical Caliper mobility shift assay, EGFR L858R enzyme; read-out: Enz EGFR L858R IC50. Here is the method:
(§1) Inhibitory effects of the compounds of the disclosure were measured in biochemical assays that measure the phosphorylation activity of EGFR enzyme phosphorylates 2.5 micromolar 5-FAM-[…]-CONH2 peptide substrate (ProfilerPro Kinase Peptide Substrate 22, PerkinElmer, Part #760366) in the presence of adenosine-5′-triphosphate (ATP) and varying concentrations of the test compound in 100 mM 2-[4-(2-hydroxyethyl)piperazin-1-yl]ethanesulfonic acid (HEPES), pH 7.5, 10 mM MgCl2, 0.015% Brij-35, 1 mM dithiothreitol (DTT), 1.0% dimehylsulfoxide (DMSO). Assays were performed at 1.0 mM ATP or at ATP Km of the EGFR enzymes. Reactions proceeded until between 10% to 20% total peptides were phosphorylated at room temperature (25° C.) and were terminated with 35 mM 2,2′,2″,2′″-(ethane-1,2-diyldinitrilo)tetraacetic acid (EDTA). Product was detected using the Caliper mobility shift detection method where the phosphorylated peptide (product) and substrate were electrophoretically separated and measured. Percent activity was plotted against log concentration of compound and points to generate an apparent IC50. The following enzyme forms of • EGFR were examples that were used in these assays: • EGFR WT (SignalChem, E10-112G) • EGFR L858R (SignalChem, E10-122BG) • EGFR (d746-750) (SignalChem, E10-122JG) • EGFR L858R C797S (SignalChem, E10-122ZG) • EGFR (d746-750) C797S (SignalChem, E10-122TG)

The target in assay [3] is T2, EGFR (d746-750) (Homo sapiens, UniProt P00533, DEL746-750).
T2 construct: purchased SignalChem E10-122JG
The assay is described as follows: Biochemical EGFR inhibition assay (Caliper mobility shift), EGFR (d746-750). To be noted: biochemical Caliper mobility shift assay, EGFR Exon 19-del enzyme; read-out: Enz EGFR Exon 19-del IC50. Here is the method:
as §1

T1 sequence (P00533 25-1210 L858R): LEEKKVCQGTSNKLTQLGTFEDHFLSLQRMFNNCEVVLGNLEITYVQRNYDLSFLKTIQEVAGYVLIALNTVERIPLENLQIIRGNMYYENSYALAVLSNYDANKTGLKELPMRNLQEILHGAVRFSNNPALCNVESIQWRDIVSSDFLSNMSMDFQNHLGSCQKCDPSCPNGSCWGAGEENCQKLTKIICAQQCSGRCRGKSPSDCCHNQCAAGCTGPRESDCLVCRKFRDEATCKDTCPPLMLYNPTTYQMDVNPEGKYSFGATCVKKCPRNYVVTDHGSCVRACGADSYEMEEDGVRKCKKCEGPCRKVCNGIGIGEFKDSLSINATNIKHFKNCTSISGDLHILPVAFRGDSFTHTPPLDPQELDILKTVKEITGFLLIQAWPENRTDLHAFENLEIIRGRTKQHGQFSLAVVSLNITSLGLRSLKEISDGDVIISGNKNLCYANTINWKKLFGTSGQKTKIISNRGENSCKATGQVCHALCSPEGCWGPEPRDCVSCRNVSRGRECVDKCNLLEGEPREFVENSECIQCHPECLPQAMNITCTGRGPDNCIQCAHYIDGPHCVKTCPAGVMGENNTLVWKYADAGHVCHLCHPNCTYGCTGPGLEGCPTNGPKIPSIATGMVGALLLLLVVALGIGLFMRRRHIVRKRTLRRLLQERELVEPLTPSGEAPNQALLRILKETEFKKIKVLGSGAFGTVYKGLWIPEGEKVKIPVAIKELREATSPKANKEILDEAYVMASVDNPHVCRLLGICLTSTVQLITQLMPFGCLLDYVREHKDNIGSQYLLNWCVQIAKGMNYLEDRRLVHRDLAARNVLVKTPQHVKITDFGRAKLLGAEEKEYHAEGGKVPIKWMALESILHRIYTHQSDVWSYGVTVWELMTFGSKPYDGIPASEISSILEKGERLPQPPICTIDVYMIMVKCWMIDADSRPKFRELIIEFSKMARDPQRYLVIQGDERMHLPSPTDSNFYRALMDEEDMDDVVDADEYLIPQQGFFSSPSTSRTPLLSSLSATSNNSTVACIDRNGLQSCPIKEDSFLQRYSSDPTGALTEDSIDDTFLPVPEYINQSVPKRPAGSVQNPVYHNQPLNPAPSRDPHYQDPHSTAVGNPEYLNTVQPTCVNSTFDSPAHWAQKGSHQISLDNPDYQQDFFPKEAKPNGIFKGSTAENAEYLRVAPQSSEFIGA
T2 sequence (P00533 with tags, fused parts or gaps DEL746-750 limits assumed): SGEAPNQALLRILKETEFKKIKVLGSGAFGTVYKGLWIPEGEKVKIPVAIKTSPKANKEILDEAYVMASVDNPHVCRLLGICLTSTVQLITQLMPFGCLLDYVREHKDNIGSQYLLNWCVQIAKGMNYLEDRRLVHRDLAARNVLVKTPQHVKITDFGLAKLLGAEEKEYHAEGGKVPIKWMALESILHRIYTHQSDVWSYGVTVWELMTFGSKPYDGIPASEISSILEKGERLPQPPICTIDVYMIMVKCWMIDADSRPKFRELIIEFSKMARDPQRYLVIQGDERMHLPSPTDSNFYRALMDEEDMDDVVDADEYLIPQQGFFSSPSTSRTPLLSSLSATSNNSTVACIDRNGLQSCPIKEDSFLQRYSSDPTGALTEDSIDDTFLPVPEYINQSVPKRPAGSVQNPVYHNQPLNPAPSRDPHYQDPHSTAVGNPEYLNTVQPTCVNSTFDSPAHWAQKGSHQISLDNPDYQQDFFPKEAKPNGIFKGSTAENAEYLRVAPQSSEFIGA
Sequence of intracellular phosphorylation of EGFR (Tyr1068) in PC-9 cells (P00533 with tags, fused parts or gaps DEL746-750): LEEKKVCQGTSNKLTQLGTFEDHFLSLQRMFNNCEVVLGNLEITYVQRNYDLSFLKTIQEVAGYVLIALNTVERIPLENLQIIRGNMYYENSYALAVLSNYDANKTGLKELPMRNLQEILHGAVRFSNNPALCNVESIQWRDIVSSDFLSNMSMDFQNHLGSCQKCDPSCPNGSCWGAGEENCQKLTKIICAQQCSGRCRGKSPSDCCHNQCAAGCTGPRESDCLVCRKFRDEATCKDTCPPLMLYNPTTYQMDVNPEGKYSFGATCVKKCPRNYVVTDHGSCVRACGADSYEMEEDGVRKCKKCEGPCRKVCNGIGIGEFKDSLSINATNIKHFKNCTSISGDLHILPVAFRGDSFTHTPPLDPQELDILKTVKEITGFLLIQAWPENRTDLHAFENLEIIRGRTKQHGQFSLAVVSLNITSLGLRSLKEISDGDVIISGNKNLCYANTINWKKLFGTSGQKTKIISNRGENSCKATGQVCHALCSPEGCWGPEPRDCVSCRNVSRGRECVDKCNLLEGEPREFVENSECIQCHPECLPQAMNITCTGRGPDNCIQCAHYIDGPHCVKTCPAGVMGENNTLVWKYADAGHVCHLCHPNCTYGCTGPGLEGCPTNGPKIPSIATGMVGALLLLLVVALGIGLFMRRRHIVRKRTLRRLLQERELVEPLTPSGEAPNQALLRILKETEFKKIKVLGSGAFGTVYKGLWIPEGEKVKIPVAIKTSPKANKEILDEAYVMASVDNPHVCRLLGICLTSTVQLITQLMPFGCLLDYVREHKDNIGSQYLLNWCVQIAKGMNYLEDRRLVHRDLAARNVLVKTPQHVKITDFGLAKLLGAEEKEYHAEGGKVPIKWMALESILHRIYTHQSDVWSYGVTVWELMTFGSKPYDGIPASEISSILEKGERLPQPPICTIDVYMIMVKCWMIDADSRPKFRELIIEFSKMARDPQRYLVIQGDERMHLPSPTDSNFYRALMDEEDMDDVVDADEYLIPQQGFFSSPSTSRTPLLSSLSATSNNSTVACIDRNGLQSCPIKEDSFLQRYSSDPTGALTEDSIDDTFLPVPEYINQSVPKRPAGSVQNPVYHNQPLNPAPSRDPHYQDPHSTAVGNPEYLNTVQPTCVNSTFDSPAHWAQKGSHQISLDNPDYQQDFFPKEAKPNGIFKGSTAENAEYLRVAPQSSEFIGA

Take `CN1C[C@H](F)C[C@H](Oc2cc(-c3cnn(C)c3)cc3ncnc(Nc4ccc5ncsc5c4)c23)C1` (single isomer, unassigned) [Example 336]: the IC50 in assay [1], in assay [2] and in assay [3] was no more than 10 nM each time.

`C[C@@H](Oc1cc(N2CCN(C)CC2)cc2ncnc(Nc3ccc4ncsc4c3F)c12)C1COC1` (single isomer, unassigned) [Example 95]: the values for the half-maximal inhibitory concentration (IC50) in assay [1], in assay [2] and in assay [3] were 10.1 to 50 nM, 10.1 to 50 nM and no more than 10 nM, respectively.

For `COc1nn(C)cc1-c1cc(O[C@@H]2CCNC[C@H]2F)c2c(Nc3ccc4ncsc4c3F)ncnc2c1` [Example 350, 7-fluoro-N-(5-(((3R,4R)-3-fluoropiperidin-4-yl)oxy)-7-(3-methoxy-1-methyl-1H-pyrazol-4-yl)quinazolin-4-yl)benzo[d]thiazol-6-amine], the IC50 in assay [1], in assay [2] and in assay [3] was no more than 10 nM each time.

With `CC(Oc1cc(-c2cnn(C)c2)cc2ncnc(Nc3ccc4ncsc4c3F)c12)C(=O)N1CCOCC1` (stereo not drawn) [Example 281, 2-((4-((7-fluorobenzo[d]thiazol-6-yl)amino)-7-(1-methyl-1H-pyrazol-4-yl)quinazolin-5-yl)oxy)-1-morpholinopropan-1-one], the IC50 in assay [1], in assay [2] and in assay [3] was no more than 10 nM each time.

On to `CCC(=O)N1CCC(Nc2cc3c(Nc4ccc5ncsc5c4)ncnc3cc2-c2ccn(C)n2)CC1` [Example 257, 1-(4-((4-(benzo[d]thiazol-6-ylamino)-7-(1-methyl-1H-pyrazol-3-yl)quinazolin-6-yl)amino)piperidin-1-yl)propan-1-one], for which the IC50 in assay [1], in assay [2] and in assay [3] was no more than 10 nM in each case.

With `CN1CC[C@@H](Nc2cc3c(Nc4ccc5ncsc5c4)ncnc3cc2-c2cnn(C)c2)[C@H](F)C1` (single isomer, unassigned) [Example 325], the IC50 in assay [1] was greater than 50.1 nM; in assay [2], 10.1 to 50 nM; in assay [3] it was no more than 10 nM.

For the compound `Cn1cc(-c2cc(O[C@H]3CC[C@@H](O)CC3)c3c(Nc4ccc5ncsc5c4)ncnc3c2)cn1` [Example 11, (1s,4s)-4-((4-(benzo[d]thiazol-6-ylamino)-7-(1-methyl-1H-pyrazol-4-yl)quinazolin-5-yl)oxy)cyclohexan-1-ol], the IC50 in assay [1], in assay [2] and in assay [3] was no more than 10 nM each time.

Consider `Cn1cc(-c2cc(OC(C)(C)C(=O)N3CCOCC3)c3c(Nc4ccc5ncsc5c4)ncnc3c2)cn1` [Example 286, 2-((4-(benzo[d]thiazol-6-ylamino)-7-(1-methyl-1H-pyrazol-4-yl)quinazolin-5-yl)oxy)-2-methyl-1-morpholinopropan-1-one], for which the IC50 in assay [1] was 10.1 to 50 nM; in assay [2], 10.1 to 50 nM; in assay [3], no more than 10 nM.

Take `C[C@H](CO)Oc1cc(N2CCN(C)CC2)cc2ncnc(Nc3ccc4ncsc4c3)c12` (single isomer, unassigned) [Example 293]: the IC50 is 10.1 to 50 nM in assay [1], no more than 10 nM in assay [2] and no more than 10 nM in assay [3].

For the compound `C[C@H](CN1CCOCC1)Oc1cc(-c2cnn(C)c2)cc2ncnc(Nc3ccc4ncsc4c3)c12` [Example 395, (R)-N-(7-(1-methyl-1H-pyrazol-4-yl)-5-((1-morpholinopropan-2-yl)oxy)quinazolin-4-yl)benzo[d]thiazol-6-amine], the IC50 in assay [1] is 10.1 to 50 nM; in assay [2], no more than 10 nM; in assay [3], no more than 10 nM.

Regarding `COCCN1CCC(Oc2cc(-c3nn(C)cc3OC)cc3ncnc(Nc4ccc5ncsc5c4)c23)CC1` [Example 308, N-(7-(4-methoxy-1-methyl-1H-pyrazol-3-yl)-5-((1-(2-methoxyethyl)piperidin-4-yl)oxy)quinazolin-4-yl)benzo[d]thiazol-6-amine], the IC50 was 10.1 to 50 nM in assay [1], 10.1 to 50 nM in assay [2] and no more than 10 nM in assay [3].

For `COC[C@@H](C)Oc1cc(-c2cnn(C)c2)cc2ncnc(Nc3ccc4ncsc4c3F)c12` [Example 91, (R)-7-fluoro-N-(5-((1-methoxypropan-2-yl)oxy)-7-(1-methyl-1H-pyrazol-4-yl)quinazolin-4-yl)benzo[d]thiazol-6-amine], the half-maximal inhibitory concentration (IC50) in assay [1], in assay [2] and in assay [3] was no more than 10 nM throughout.

For the compound `C[C@@H](Oc1cc(-c2cnn(C)c2)cc2ncnc(Nc3ccc4ncsc4c3)c12)[C@H]1CN(C)CCO1` (single isomer, unassigned) [Example 209], the IC50 in assay [1], in assay [2] and in assay [3] was no more than 10 nM in each case.

Consider `c1nc(Nc2ccc3ncsc3c2)c2c(OC3CCOCC3)cc(N3CC4CC(C3)O4)cc2n1` [Example 199, N-(7-(6-oxa-3-azabicyclo[3.1.1]heptan-3-yl)-5-((tetrahydro-2H-pyran-4-yl)oxy)quinazolin-4-yl)benzo[d]thiazol-6-amine], for which the IC50 in assay [1] is 10.1 to 50 nM; in assay [2], no more than 10 nM; in assay [3], no more than 10 nM.

Take `CN1CC[C@H](Oc2cc(-c3cnn(C)c3)cc3ncnc(Nc4ccc5ncsc5c4)c23)[C@@H](F)C1` (single isomer, unassigned) [Example 344]: the IC50 in assay [1], in assay [2] and in assay [3] was no more than 10 nM throughout.

`CN(C)CCOc1cc(-c2cnn(C)c2)cc2ncnc(Nc3ccc4ncsc4c3)c12` [Example A60, N-(5-(2-(dimethylamino)ethoxy)-7-(1-methyl-1H-pyrazol-4-yl)quinazolin-4-yl)benzo[d]thiazol-6-amine]: the IC50 in assay [1] is 10.1 to 50 nM; in assay [2], 10.1 to 50 nM; in assay [3] it was no more than 10 nM.

Take `Cn1cc(-c2cc(OC3CCOC3)c3c(Nc4ccc5ncsc5c4)ncnc3c2)cn1` (stereo not drawn) [Example 415, N-(7-(1-methyl-1H-pyrazol-4-yl)-5-((tetrahydrofuran-3-yl)oxy)quinazolin-4-yl)benzo[d]thiazol-6-amine]: the IC50 in assay [1] is 10.1 to 50 nM; in assay [2], no more than 10 nM; in assay [3], no more than 10 nM.

In the case of `C[C@@H](Oc1cc(-c2cnn(C)c2)cc2ncnc(Nc3ccc4ncsc4c3F)c12)[C@H]1CCOC1` (single isomer, unassigned) [Example 88], the IC50 in assay [1], in assay [2] and in assay [3] was no more than 10 nM throughout.

As to `Cn1cc(-c2cc(O[C@H]3COC[C@H]3F)c3c(Nc4ccc5ncsc5c4)ncnc3c2)cn1` (racemic) [Example A10, N-(5-(((3S,4R)-4-fluorotetrahydrofuran-3-yl)oxy)-7-(1-methyl-1H-pyrazol-4-yl)quinazolin-4-yl)benzo[d]thiazol-6-amine], the IC50 in assay [1], in assay [2] and in assay [3] was no more than 10 nM each time.

For the compound `CN1CC[C@@](C)(COc2cc(-c3cnn(C)c3)cc3ncnc(Nc4ccc5ncsc5c4)c23)C1=O` (single isomer, unassigned) [Example 55], the IC50 is 10.1 to 50 nM in assay [1], no more than 10 nM in assay [2] and no more than 10 nM in assay [3].

As to `CO[C@@H]1CCNC[C@H]1Oc1cc(-c2cnn(C)c2)cc2ncnc(Nc3ccc4ncsc4c3)c12` (single isomer, unassigned) [Example A37], the values for the IC50 in assay [1], in assay [2] and in assay [3] were 10.1 to 50 nM, no more than 10 nM and no more than 10 nM, respectively.

By IC50 is commonly meant the midpoint of a concentration-inhibition curve.
